Source: patent US20190071416A1, “COMPOUNDS FOR TREATMENT OF CANCER AND EPIGENETICS” (Agency For Science, Technology and Research, priority 2015, published 2019)

Molecular target: T1, SMYD3 (Homo sapiens, UniProt Q9H7B4)
T1 sequence (Q9H7B4 1-428): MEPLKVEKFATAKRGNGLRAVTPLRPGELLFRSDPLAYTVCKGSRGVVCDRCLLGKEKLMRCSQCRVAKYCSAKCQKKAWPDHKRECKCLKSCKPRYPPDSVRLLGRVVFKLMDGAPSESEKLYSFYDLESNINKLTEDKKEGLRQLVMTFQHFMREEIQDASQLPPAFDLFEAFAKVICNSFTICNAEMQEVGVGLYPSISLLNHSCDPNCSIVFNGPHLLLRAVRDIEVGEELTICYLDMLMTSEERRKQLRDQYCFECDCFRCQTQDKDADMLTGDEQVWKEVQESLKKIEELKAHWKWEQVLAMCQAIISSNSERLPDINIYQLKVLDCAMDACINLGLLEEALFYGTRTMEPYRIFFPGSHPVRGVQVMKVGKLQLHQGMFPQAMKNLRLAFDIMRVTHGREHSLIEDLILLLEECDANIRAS
Experiment: SMYD3 biochemical assay (MTase-Glo, MAP3K2 peptide substrate)
Details: Table 3; MTase assay, MAP3K2 peptide substrate; read-out: IC50
Method in brief: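 Methylation of MAP3K2 peptide (10 µM final) with SAM (1.0 µM final) by SMYD3, 30 min at room temperature. SAH formed was enzymatically converted to ATP and detected as luminescence with MTase-Glo reagents; IC50 by non-linear regression.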

Row | SMILES | IC50
1 | CCCOC(=O)N1CCN(C(=O)c2ccc3c(Cl)cc(-c4ccc(OC)c(CO)c4)nc3c2)C[C@@H]1C [B171, Propyl (S)-4-(4-chloro-2-(3-(hydroxymethyl)-4-methoxyphenyl)quinoline-7-carbonyl)-2-methylpiperazine-1-carboxylate] | 150 nM
2 | CCCOC(=O)N1CCN(C(=O)c2ccc3c(Cl)cc(-c4ccc(F)c(CN)c4)nc3c2)CC1 [B172, Propyl 4-(2-(3-(aminomethyl)-4-fluorophenyl)-4-chloroquinoline-7-carbonyl)piperazine-1-carboxylate] | 39 nM
3 | CCCOC(=O)N1CCN(C(=O)c2ccc3c(Cl)cc(-c4ccc5[nH]nc(C)c5c4)nc3c2)CC1 [B176, Propyl 4-(4-chloro-2-(3-methyl-1H-indazol-5-yl)quinoline-7-carbonyl)piperazine-1-carboxylate] | 490 nM
4 | CCCOC(=O)N1CCN(C(=O)c2ccc3c(Cl)cc(-c4ccc(C)nc4)nc3c2)C[C@H]1C [B177, Propyl (R)-4-(4-chloro-2-(6-methylpyridin-3-yl)quinoline-7-carbonyl)-2-methylpiperazine-1-carboxylate] | 360 nM
5 | CCCOC(=O)N1CCN(C(=O)c2ccc3c(Cl)cc(-c4ccc(C(=O)OC)nc4)nc3c2)C[C@H]1C [B178, Propyl (R)-4-(4-chloro-2-(6-(methoxycarbonyl)pyridin-3-yl)quinoline-7-carbonyl)-2-methylpiperazine-1-carboxylate] | 930 nM
6 | CCCOC(=O)N1CCN(C(=O)c2ccc3c(Cl)cc(-c4ccc(F)c(N)c4)nc3c2)CC1 [B180, Propyl 4-(2-(3-amino-4-fluorophenyl)-4-chloroquinoline-7-carbonyl)piperazine-1-carboxylate] | 250 nM
7 | CCCOC(=O)N1CCN(C(=O)c2ccc3c(Cl)cc(-c4ccc(O)c(OCC)c4)nc3c2)CC1 [B181, Propyl 4-(4-chloro-2-(3-ethoxy-4-hydroxyphenyl)quinoline-7-carbonyl)piperazine-1-carboxylate] | 290 nM
8 | CCCOC(=O)N1CCN(C(=O)c2ccc3c(Cl)cc(-c4ccc(O)c(CO)c4)nc3c2)C[C@@H]1C [B182, Propyl (S)-4-(4-chloro-2-(4-hydroxy-3-(hydroxymethyl)phenyl)quinoline-7-carbonyl)-2-methylpiperazine-1-carboxylate] | 140 nM
9 | CCCOC(=O)N1CCN(C(=O)c2ccc3c(Cl)cc(-c4ccc5[nH]c(O)nc5c4)nc3c2)CC1 [B184, Propyl 4-(4-chloro-2-(2-hydroxy-1H-benzo[d]imidazol-5-yl)quinoline-7-carbonyl)piperazine-1-carboxylate] | 100 nM
10 | CCCOC(=O)N1CCN(C(=O)c2ccc3c(Cl)cc(-c4cccc5[nH]cnc45)nc3c2)CC1 [B187, Propyl 4-(2-(1H-benzo[d]imidazol-4-yl)-4-chloroquinoline-7-carbonyl)piperazine-1-carboxylate] | 140 nM
11 | CCCOC(=O)N1CCN(C(=O)c2ccc3c(Cl)cc(-c4cnc5cccnc5c4)nc3c2)C[C@@H]1C [B188, Propyl (S)-4-(4-chloro-2-(1,5-naphthyridin-3-yl)quinoline-7-carbonyl)-2-methylpiperazine-1-carboxylate] | 890 nM
12 | CCCOC(=O)N1CCN(C(=O)c2ccc3c(Cl)cc(-c4ccc(C(=O)NC)cc4)nc3c2)C[C@@H]1C [B189, Propyl (S)-4-(4-chloro-2-(4-(methylcarbamoyl)phenyl)quinoline-7-carbonyl)-2-methylpiperazine-1-carboxylate] | 69 nM
13 | CCCOC(=O)N1CCN(C(=O)c2ccc3c(Cl)cc(-c4ccc(C(=O)NC)cc4)nc3c2)[C@@H](C)C1 [B190, Propyl (S)-4-(4-chloro-2-(4-(methylcarbamoyl)phenyl)quinoline-7-carbonyl)-3-methylpiperazine-1-carboxylate] | 130 nM
14 | CCCOC(=O)N1CCN(C(=O)c2ccc3c(Cl)cc(-c4ccc(O)c(F)c4)nc3c2)C[C@@H]1C [B192, Propyl (S)-4-(4-chloro-2-(3-fluoro-4-hydroxyphenyl)quinoline-7-carbonyl)-2-methylpiperazine-1-carboxylate] | 75 nM
15 | CCCOC(=O)N1CCN(C(=O)c2ccc3c(Cl)cc(-c4ccn(C)c4)nc3c2)C[C@@H]1C [B193, Propyl (S)-4-(4-chloro-2-(1-methyl-1H-pyrrol-3-yl)quinoline-7-carbonyl)-2-methylpiperazine-1-carboxylate] | 60 nM
16 | CCCOC(=O)N1CCN(C(=O)c2ccc3c(Cl)cc(-c4ccn(C)c4)nc3c2)[C@@H](C)C1 [B194, Propyl (S)-4-(4-chloro-2-(1-methyl-1H-pyrrol-3-yl)quinoline-7-carbonyl)-3-methylpiperazine-1-carboxylate] | 130 nM

Second part, the molecule after the results:

Row | IC50 | SMILES
17 | 2500 nM | CCCOC(=O)N1CCN(C(=O)c2ccc3c(Cl)cc(-c4cnc5[nH]nc(C)c5c4)nc3c2)CC1 [B173, Propyl 4-(4-chloro-2-(3-methyl-1H-pyrazolo[3,4-b]pyridin-5-yl)quinoline-7-carbonyl)piperazine-1-carboxylate]
18 | 470 nM | CCCOC(=O)N1CCN(C(=O)c2ccc3c(Cl)cc(-c4cnc5c(cnn5C)c4)nc3c2)CC1 [B174, Propyl 4-(4-chloro-2-(1-methyl-1H-pyrazolo[3,4-b]pyridin-5-yl)quinoline-7-carbonyl)piperazine-1-carboxylate]
19 | 400 nM | CCCOC(=O)N1CCN(C(=O)c2ccc3c(Cl)cc(-c4cnc5[nH]c(C)cc5c4)nc3c2)CC1 [B175, Propyl 4-(4-chloro-2-(2-methyl-1H-pyrrolo[2,3-b]pyridin-5-yl)quinoline-7-carbonyl)piperazine-1-carboxylate]
20 | 250 nM | CCCOC(=O)N1CCN(C(=O)c2ccc3c(Cl)cc(-c4cnn(C)c4)nc3c2)CC1 [B179, Propyl 4-(4-chloro-2-(1-methyl-1H-pyrazol-4-yl)quinoline-7-carbonyl)piperazine-1-carboxylate]
21 | 120 nM | CCCOC(=O)N1CCN(C(=O)c2ccc3c(Cl)cc(-c4ccc5c(c4)ncn5C)nc3c2)CC1 [B183, Propyl 4-(4-chloro-2-(1-methyl-1H-benzo[d]imidazol-5-yl)quinoline-7-carbonyl)piperazine-1-carboxylate]
22 | 870 nM | CCCOC(=O)N1CCN(C(=O)c2ccc3c(Cl)cc(-c4cnc(N)nc4)nc3c2)CC1 [B185, Propyl 4-(2-(2-aminopyrimidin-5-yl)-4-chloroquinoline-7-carbonyl)piperazine-1-carboxylate]
23 | 140 nM | CCCOC(=O)N1CCN(C(=O)c2ccc3c(Cl)cc(-c4cc(C)c5[nH]ncc5c4)nc3c2)CC1 [B186, Propyl 4-(4-chloro-2-(7-methyl-1H-indazol-5-yl)quinoline-7-carbonyl)piperazine-1-carboxylate]
24 | 140 nM | CCCOC(=O)N1CCN(C(=O)c2ccc3c(Cl)cc(-c4ccc(O)c(F)c4)nc3c2)CC1 [B191, Propyl 4-(4-chloro-2-(3-fluoro-4-hydroxyphenyl)quinoline-7-carbonyl)piperazine-1-carboxylate]
25 | 250 nM | CCCOC(=O)N1CCN(C(=O)c2ccc3c(Cl)cc(-c4ccc5cnn(C)c5c4)nc3c2)CC1 [B195, Propyl 4-(4-chloro-2-(1-methyl-1H-indazol-6-yl)quinoline-7-carbonyl)piperazine-1-carboxylate]
26 | 56 nM | CCCOC(=O)N1CCN(C(=O)c2ccc3c(Cl)cc(-c4ccc5cn(C)nc5c4)nc3c2)CC1 [B196, Propyl 4-(4-chloro-2-(2-methyl-2H-indazol-6-yl)quinoline-7-carbonyl)piperazine-1-carboxylate]
